Measured values published in patent US20070128217A1 (priority 2003, published 2007).

Assays:
[1] = system: recombinant human anti-SARS-CoV antibody 03-018; type: binding; parameters: Binding of antibody 03-018 to linear peptides of the N protein of SARS-CoV Urbani / Binding of antibody 03-018 to looped/cyclic peptides of the N protein of SARS-CoV Urbani: unit not given here
[2] = system: antibodies in sera from SARS patients (sera 1a, 1b, 2, 6, 37, 62, London, SARS-yellow, SARS-green); type: binding, human; parameters: Binding of serum 6 to linear peptides of protein X1 of SARS-CoV Urbani / Binding of serum 37 to linear peptides of protein X1 of SARS-CoV Urbani / Binding of serum 6 to looped/cyclic peptide (PEPSCAN-ELISA) / Binding of serum 37 to looped/cyclic peptide (PEPSCAN-ELISA) / Binding of serum 37 to looped/cyclic peptides of protein X1 of SARS-CoV Urbani / Binding of serum 6 to linear peptides of protein X2 / Binding of serum 37 to linear peptides of protein X2 / Binding of serum 37 to looped/cyclic peptides of protein X2 of SARS-CoV Urbani / Binding of serum 6 to linear peptides of protein M of SARS-CoV Urbani / Binding of serum 37 to linear peptides of protein M of SARS-CoV Urbani / Binding of serum 6 to looped/cyclic peptides of protein M of SARS-CoV Urbani / Binding of serum 37 to looped/cyclic peptides of protein M of SARS-CoV Urbani / Binding of serum 6 to linear peptides of protein X3 of SARS-CoV Urbani / Binding of serum 37 to linear peptides of protein X3 of SARS-CoV Urbani / Binding of serum 37 to looped/cyclic peptides of protein X3 of SARS-CoV Urbani / Binding of serum 6 to linear peptides of protein X4 of SARS-CoV Urbani / Binding of serum 37 to linear peptides of protein X4 of SARS-CoV Urbani / Binding of serum 37 to looped/cyclic peptides of protein X4 of SARS-CoV Urbani / Binding of serum 6 to linear peptides of protein X5 of SARS-CoV Urbani / Binding of serum 37 to linear peptides of protein X5 of SARS-CoV Urbani / Binding of serum 37 to looped/cyclic peptides of protein X5 of SARS-CoV Urbani / Binding of serum 6 to linear peptides of protein N of SARS-CoV Urbani / Binding of serum 37 to linear peptides of protein N of SARS-CoV Urbani / Binding of serum 6 to linear peptide (PEPSCAN-ELISA) / Binding of serum 1a to looped/cyclic peptides of protein N of SARS-CoV Urbani / Binding of serum 1b to looped/cyclic peptides of protein N of SARS-CoV Urbani / Binding of serum 2 to looped/cyclic peptides of protein N of SARS-CoV Urbani / Binding of serum 6 to looped/cyclic peptides of protein N of SARS-CoV Urbani / Binding of serum 37 to looped/cyclic peptides of protein N of SARS-CoV Urbani / Binding of serum 62 to looped/cyclic peptides of protein N of SARS-CoV Urbani / Binding of serum London to looped/cyclic peptides of protein N of SARS-CoV Urbani / Binding of serum SARS-green to looped/cyclic peptides of protein N of SARS-CoV Urbani: unit not given here
[3] = system: control sera (pooled serum of ten healthy LUMC hospital workers; commercial negative donor pooled serum from the Dutch bloodbank); type: binding, human; parameters: Binding of Control serum LUMC to linear peptides / Binding of Control serum Blood-bank to linear peptides / Binding of Control serum LUMC to looped peptides / Binding of Control Serum Blood-Bank to Looped peptides / Binding of Control serum LUMC to linear peptides of the protein M of SARS-CoV Urbani / Binding of Control serum Blood-bank to linear peptides of the protein M of SARS-CoV Urbani / Binding of Control serum LUMC to looped peptides of the protein M of SARS-CoV Urbani / Binding of Control Serum Blood-Bank to Looped peptides of the protein M of SARS-CoV Urbani: unit not given here
[4] = system: rabbit serum obtained by immunizing a rabbit with the SARS-CoV strain Frankfurt 1; type: binding; parameters: Binding of a rabbit serum to linear peptides / Binding of a rabbit serum to looped peptides / Rabbit serum linear peptides / Rabbit serum looped peptides / Binding of a rabbit serum to linear peptides of protein N of SARS-CoV Urbani (Rabbit serum linear peptides) / Binding of a rabbit serum to looped/cyclic peptides of protein N of SARS-CoV Urbani (Rabbit serum looped peptides): unit not given here

Row | Sequence | Binding of antibody 03-018 to linear peptides of the N protein of SARS-CoV Urbani [1] | Binding of antibody 03-018 to looped/cyclic peptides of the N protein of SARS-CoV Urbani [1] | Binding of serum 1a to linear peptides of protein N of SARS-CoV Urbani [2] | Binding of serum 1a to looped/cyclic peptides of protein N of SARS-CoV Urbani [2] | Binding of serum 1b to linear peptides of protein N of SARS-CoV Urbani [2] | Binding of serum 1b to looped/cyclic peptides of protein N of SARS-CoV Urbani [2] | Binding of serum 2 to linear peptides of protein N of SARS-CoV Urbani [2] | Binding of serum 2 to looped/cyclic peptides of protein N of SARS-CoV Urbani [2] | Binding of serum 6 to looped/cyclic peptides of protein N of SARS-CoV Urbani [2] | Binding of serum 37 to looped/cyclic peptides of protein N of SARS-CoV Urbani [2] | Binding of serum 62 to looped/cyclic peptides of protein N of SARS-CoV Urbani [2] | Binding of serum London to looped/cyclic peptides of protein N of SARS-CoV Urbani [2] | Binding of serum SARS-green to looped/cyclic peptides of protein N of SARS-CoV Urbani [2] | Binding of serum SARS-yellow to looped/cyclic peptides of protein N of SARS-CoV Urbani [2] | Binding of Control Serum Blood-Bank to Looped peptides [3] | Binding of Control serum Blood-bank to linear peptides [3] | Binding of Control serum LUMC to linear peptides [3] | Binding of Control serum LUMC to looped peptides [3] | Binding of a rabbit serum to linear peptides of protein N of SARS-CoV Urbani (Rabbit serum linear peptides) [4] | Binding of a rabbit serum to looped/cyclic peptides of protein N of SARS-CoV Urbani (Rabbit serum looped peptides) [4] | other results
1 | SPRWYFYYLGTGPEA | 0.1 | 0.2 | 0.3 | 0.6 | 0.2 | 0.3 | 0.2 | 0.5 | 0.4 | 0.9 | 1.1 | 0.7 | 0.6 | 0.7 | 0.8 | 0.7 | 0.6 | 0.8 | 0.2 | 0.6 | Binding of serum 6 to linear peptides of protein N of SARS-CoV Urbani [2]: 0.2; Binding of serum 37 to linear peptides of protein N of SARS-CoV Urbani [2]: 0.9; Binding of serum 62 to linear peptides of protein N of SARS-CoV Urbani [2]: 0.9; Binding of serum London to linear peptides of protein N of SARS-CoV Urbani [2]: 0.5; Binding of serum SARS-green to linear peptides of protein N of SARS-CoV Urbani [2]: 0.6; Binding of serum SARS-yellow to linear peptides of protein N of SARS-CoV Urbani [2]: 0.6
2 | SRGGSQASSRSSSRS | 0.1 | 0.2 | – | 0.4 | – | 0.3 | – | 0.3 | 0.3 | 0.5 | 0.3 | 0.3 | 0.2 | 0.2 | 0.5 | 0.7 | 0.6 | 0.6 | 0.2 | 0.5 | Binding of serum 1a to linear peptide (PEPSCAN-ELISA) [2]: 0.3; Binding of serum 1b to linear peptide (PEPSCAN-ELISA) [2]: 0.1; Binding of serum 2 to linear peptide (PEPSCAN-ELISA) [2]: 0.3; Binding of serum 6 to linear peptide (PEPSCAN-ELISA) [2]: 0.4; Binding of serum 37 to linear peptide (PEPSCAN-ELISA) [2]: 0.6; Binding of serum 62 to linear peptide (PEPSCAN-ELISA) [2]: 0.7; Binding of serum London to linear peptide (PEPSCAN-ELISA) [2]: 0.4; Binding of serum SARS-green to linear peptide (PEPSCAN-ELISA) [2]: 0.1; Binding of serum SARS-yellow to linear peptide (PEPSCAN-ELISA) [2]: 0.9
3 | SRIGMEVTPSGTWLT | 0.1 | 0.2 | 0.2 | 0.3 | 0.1 | 0.2 | 0.2 | 0.4 | 0.2 | 0.5 | 0.5 | 0.4 | 0.5 | 0.4 | – | – | – | – | 0.1 | 0.4 | Binding of serum 6 to linear peptides of protein N of SARS-CoV Urbani [2]: 0.2; Binding of serum 37 to linear peptides of protein N of SARS-CoV Urbani [2]: 0.7; Binding of serum 62 to linear peptides of protein N of SARS-CoV Urbani [2]: 0.6; Binding of serum London to linear peptides of protein N of SARS-CoV Urbani [2]: 0.5; Binding of serum SARS-green to linear peptides of protein N of SARS-CoV Urbani [2]: 0.4; Binding of serum SARS-yellow to linear peptides of protein N of SARS-CoV Urbani [2]: 0.6; Control Serum Blood-Bank Looped peptides [3]: 0.6; Control serum Blood-bank linear peptides [3]: 0.8; Control serum LUMC linear peptides [3]: 0.6; Control serum LUMC looped peptides [3]: 0.6
4 | SRSRGNSRNSTPGSS | 0.1 | 0.2 | – | 0.5 | – | 0.4 | – | 0.3 | 0.1 | 0.3 | 0.3 | 0.3 | 0.0 | 0.0 | 0.5 | 0.7 | 0.5 | 0.4 | 0.3 | 0.7 | Binding of serum 1a to linear peptide (PEPSCAN-ELISA) [2]: 1.0; Binding of serum 1b to linear peptide (PEPSCAN-ELISA) [2]: 0.6; Binding of serum 2 to linear peptide (PEPSCAN-ELISA) [2]: 0.3; Binding of serum 6 to linear peptide (PEPSCAN-ELISA) [2]: 0.2; Binding of serum 37 to linear peptide (PEPSCAN-ELISA) [2]: 0.7; Binding of serum 62 to linear peptide (PEPSCAN-ELISA) [2]: 0.7; Binding of serum London to linear peptide (PEPSCAN-ELISA) [2]: 0.5; Binding of serum SARS-green to linear peptide (PEPSCAN-ELISA) [2]: 0.4; Binding of serum SARS-yellow to linear peptide (PEPSCAN-ELISA) [2]: 0.6
